Measured values: US11458189B2, “Cytoprotective drugs” (BALMES TRANSPLANTATION, priority 2017, dated 2022)
Starred links: 1 amine or outer side, 2 acyl side, 3 side chain; linkers in the order of their positions; H or OH if unused. Positions of bridges follow the written chain, without caps; N, C: chain ends. Non-standard residues stand in square brackets, D forms with d. Residues, ends and D or L forms follow the SMILES beside them. *: point of attachment. hTyr(3S-OH,4S-OH,3'-OSO3H) = N[C@H](C(=O)O)[C@H](O)[C@@H](O)c1ccc(O)c(OS(=O)(=O)O)c1; Orn(4R-OH,5R-OH) = O=C([C@H](C[C@@H](O)[C@@H](O)N[*:3])N[*:1])[*:2]; Pro(3S-OH,4S-Me) = C[C@H]1CN[C@H](C(=O)O)[C@H]1O; X1 = CCCCCOc1ccc(-c2cc(-c3ccc(C(=O)*)cc3)no2)cc1; Gln(3R-OH) = NC(=O)C[C@@H](O)[C@H](N)C(=O)O; Hyp = O=C(O)[C@@H]1C[C@@H](O)CN1

Test system: Rat Primary Kidney Glomerular Endothelial cells
Experiment: Oxygen and glucose deprivation followed by replenishment, cell survival (calcein AM), rat glomerular endothelial cells;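 for Survival rate (%): 100% is hypoxia control with glucose and 0% is untreated OGD control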
Format: cell-based
Experimental: Anidulafungin and micafungin were tested on Human Renal Glomerular Endothelial Cells (HRGEC, Innoprot P10665), on Human Renal Proximal Tubular Epithelial Cells (HRPTEpiC, Innoprot P10662), on Human Astrocytes (HA, caltag SC-1800), on Human Cardiac Microvascular Endothelial Cells (HCMEC, Caltag SC-6000), on Human Hepatic Sinusoidal Endothelial Cells (HHSEC, Caltag SC-5000), on Rat Primary Kidney Glomerular Endothelial cells (Cellbiologics, RN-6014G) and on Bovine Brain Microvascular Endothelial Cells (BBMEC, Caltag SC-B100).
In a first phase, these isolated, purified and cryopreserved cells are thawed and multiplied according to the supplier's recommendations in T75 or T175 flasks pre-coated with 2 μg of fibronectin/[…] (CORNING) for HRGEC, HCMEC, HHSEC and BBMEC, or 2 μg poly-L-lysin/cm^2 (Caltag SC-0403) for HRPTEpiC and HA, or 15 mL/flask 175 cm^2 gelatin-based solution (Cellbiologics) in the presence of endothelial cell supplemented growth medium ECM (P60104, INNOPROT, Caltag, SC-1001) for HRGEC, HCMEC, HHSEC, RPKGEC or BBMEC, or astrocyte cell supplemented growth medium AM (Caltag SC-1801) for HA or epithelial cell supplemented growth medium EpiCM (P60106, INNOPROT) for HRPTEpiC, at 37° C. under 5% CO2 and saturated humidity until their confluency. They are then harvested by trypsinization according to the method described by the supplier for exactly 5 minutes and then reseeded in new flasks a maximum of three times.
To carry out the oxygen and glucose deprivation test followed by their replenishment, the cells will be seeded in 96-well black plates with transparent flat bottom (GREINER). Once a sufficient number of cells has been obtained to allow seeding of 2000 to 15000 cells per well of 96-well plates depending on the cell type, the cells are seeded in these 96-well plates previously coated with an extracellular matrix as listed above for the flasks. The cells are cultured for 5 to 8 days according to the cell type, in the presence of the same growth medium as in the flask as described above except for HRGEC and HRPTEpiC for which DMEM (DUTSCHER) with 1 g/L of supplemented glucose is used, at 37° C. under 5% CO2 and saturated humidity to obtain confluency.
On the first day of oxygen and glucose deprivation, (5th, 6th, 7th or 8th day of culture), the culture conditions are drastically changed. The medium of all plates is removed and replaced by DMEM (DUTSCHER) medium without glucose and supplemented only with 1% penicillin-streptomycin (DUTSCHER). Anidulafungin or micafungin dissolved in dimethyl sulfoxide (DMSO) is then added to each well at the desired concentration, resulting in a maximum of 1% DMSO, and the plates are placed under hypoxia at <1% 02 and 5% CO2 at 37° C. for 24 hours of culture. Each compound was tested in a concentration range.
After 24 hours, the growth medium is changed and replaced by a richer medium, DMEM (DUTSCHER) at 1 g/L glucose and 2% FBS (INNOPROT) and 1% penicillin-streptomycin (DUTSCHER). These media will have been pre-equilibrated at 37° C. in advance. The cells are then returned to culture at 37° C. under 20% 02 and 5% CO2 for 22h.
After 22 hours of reoxygenation, the potential protective effect of anidulafungin or micafungin is measured by a cell viability test using calcein AM (CORNING), which is a dye substrate. The calcein AM can easily cross the cell membrane of the viable cells. The AM ester groups mask the part of the molecule that chelates calcium. Once inside the cells, the (non-fluorescent) calcein AM is hydrolyzed to (fluorescent) calcein by endogenous esterases. The resulting calcein molecule binds to calcium inside the cell and remains trapped inside the cell. These molecules emit strong green fluorescence when subjected to […] of a particular wavelength (495 nm). Since dead cells lack esterase activity, only living cells are labelled.
This cell viability test is performed in two steps. […]

**Q.** Which results are given for `CCCCCOc1ccc(-c2cc(-c3ccc(C(=O)N[C@H]4C[C@@H](O)[C@@H](O)NC(=O)[C@@H]5[C@@H](O)[C@@H](C)CN5C(=O)[C@H]([C@H](O)CC(N)=O)NC(=O)[C@H]([C@H](O)[C@@H](O)c5ccc(O)c(OS(=O)(=O)O)c5)NC(=O)[C@@H]5C[C@@H](O)CN5C(=O)[C@H]([C@@H](C)O)NC4=O)cc3)no2)cc1` [Micafungin, {5-[(1S,2S)-2-[(3S,6S,9S,11R,15S,18S,20R,21R,24S,25S,26S)-3-[(1R)-2-carbamoyl-1-hydroxyethyl]-11,20,21,25-tetrahydroxy-15-[(1R)-1-hydroxyethyl]-26-methyl-2,5,8,14,17,23-hexaoxo-18-[(4-{5-[4-(pentyloxy)phenyl]-1,2-oxazol-3-yl}benzene)amido]-1,4,7,13,16,22-hexaazatricyclo[22.3.0.0]heptacosan-6-yl]-1,2-dihydroxyethyl]-2-hydroxyphenyl}oxidanesulfonic acid] (X1-[Orn(4R-OH,5R-OH)]T[Hyp][hTyr(3S-OH,4S-OH,3'-OSO3H)][Gln(3R-OH)][Pro(3S-OH,4S-Me)]; lactam 1-C)?
**A.** Globalfluo assay 1 ([Micafungin] log μM 0): 5417339 arbitrary units; Globalfluo assay 2 ([Micafungin] log μM 0): 3464807 arbitrary units; Globalfluo assay 3 ([Micafungin] log μM 0): 4867657 arbitrary units; Mean globalfluo ([Micafungin] log μM 0): 4583268 arbitrary units; Survival rate (%) ([Micafungin] log μM 0): 3%; Globalfluo assay 1 ([Micafungin] log μM 0.1760913): 8740776 arbitrary units; Globalfluo assay 2 ([Micafungin] log μM 0.1760913): 7981119 arbitrary units; Globalfluo assay 3 ([Micafungin] log μM 0.1760913): 5239211 arbitrary units; Mean globalfluo ([Micafungin] log μM 0.1760913): 7320369 arbitrary units; Survival rate (%) ([Micafungin] log μM 0.1760913): 14%; Globalfluo assay 1 ([Micafungin] log μM 0.30103): 3351615 arbitrary units; Globalfluo assay 2 ([Micafungin] log μM 0.30103): 4221516 arbitrary units; Globalfluo assay 3 ([Micafungin] log μM 0.30103): 4567106 arbitrary units; Mean globalfluo ([Micafungin] log μM 0.30103): 4046746 arbitrary units; Survival rate (%) ([Micafungin] log μM 0.30103): 0%; Globalfluo assay 1 ([Micafungin] log μM 0.39794): 5495171 arbitrary units; Globalfluo assay 2 ([Micafungin] log μM 0.39794): 5446233 arbitrary units; Globalfluo assay 3 ([Micafungin] log μM 0.39794): 3835973 arbitrary units; Mean globalfluo ([Micafungin] log μM 0.39794): 4925792 arbitrary units; Survival rate (%) ([Micafungin] log μM 0.39794): 4%; Globalfluo assay 1 ([Micafungin] log μM 0.4771213): 4782175 arbitrary units; Globalfluo assay 2 ([Micafungin] log μM 0.4771213): 7854686 arbitrary units; Globalfluo assay 3 ([Micafungin] log μM 0.4771213): 4782283 arbitrary units; Mean globalfluo ([Micafungin] log μM 0.4771213): 5806381 arbitrary units; Survival rate (%) ([Micafungin] log μM 0.4771213): 8%; Globalfluo assay 1 ([Micafungin] log μM 0.60206): 12878800 arbitrary units; Globalfluo assay 2 ([Micafungin] log μM 0.60206): 13369330 arbitrary units; Globalfluo assay 3 ([Micafungin] log μM 0.60206): 12813230 arbitrary units; Mean globalfluo ([Micafungin] log μM 0.60206): 13020453 arbitrary units; Survival rate (%) ([Micafungin] log μM 0.60206): 37%; Globalfluo assay 1 ([Micafungin] log μM 0.69897): 14177330 arbitrary units; Globalfluo assay 2 ([Micafungin] log μM 0.69897): 11602990 arbitrary units; Globalfluo assay 3 ([Micafungin] log μM 0.69897): 9423392 arbitrary units; Mean globalfluo ([Micafungin] log μM 0.69897): 11734571 arbitrary units; Survival rate (%) ([Micafungin] log μM 0.69897): 31%; Globalfluo assay 1 ([Micafungin] log μM 0.7781513): 5553126 arbitrary units; Globalfluo assay 2 ([Micafungin] log μM 0.7781513): 6638483 arbitrary units; Globalfluo assay 3 ([Micafungin] log μM 0.7781513): 7505823 arbitrary units; Mean globalfluo ([Micafungin] log μM 0.7781513): 6565811 arbitrary units; Survival rate (%) ([Micafungin] log μM 0.7781513): 11%; Globalfluo assay 1 ([Micafungin] log μM 0.845098): 7968558 arbitrary units; Globalfluo assay 2 ([Micafungin] log μM 0.845098): 13328410 arbitrary units; Globalfluo assay 3 ([Micafungin] log μM 0.845098): 4864200 arbitrary units; Mean globalfluo ([Micafungin] log μM 0.845098): 8720389 arbitrary units; Survival rate (%) ([Micafungin] log μM 0.845098): 19%; Globalfluo assay 1 ([Micafungin] log μM 0.90309): 16467230 arbitrary units; Globalfluo assay 2 ([Micafungin] log μM 0.90309): 5461253 arbitrary units; Globalfluo assay 3 ([Micafungin] log μM 0.90309): 9297072 arbitrary units; Mean globalfluo ([Micafungin] log μM 0.90309): 10408518 arbitrary units; Survival rate (%) ([Micafungin] log μM 0.90309): 26%; Globalfluo assay 1 ([Micafungin] log μM 0.9542425): 17001920 arbitrary units; Globalfluo assay 2 ([Micafungin] log μM 0.9542425): 15398170 arbitrary units; Globalfluo assay 3 ([Micafungin] log μM 0.9542425): 11994410 arbitrary units; Mean globalfluo ([Micafungin] log μM 0.9542425): 14798167 arbitrary units; Survival rate (%) ([Micafungin] log μM 0.9542425): 44%; Globalfluo assay 1 ([Micafungin] log μM 1): 24112850 arbitrary units; Globalfluo assay 2 ([Micafungin] log μM 1): 13345620 arbitrary units; Globalfluo assay 3 ([Micafungin] log μM 1): 20572260 arbitrary units; Mean globalfluo ([Micafungin] log μM 1): 19343577 arbitrary units; Survival rate (%) ([Micafungin] log μM 1): 62%; Globalfluo assay 1 ([Micafungin] log μM 1.041393): 8422700 arbitrary units; Globalfluo assay 2 ([Micafungin] log μM 1.041393): 12678250 arbitrary units; Globalfluo assay 3 ([Micafungin] log μM 1.041393): 11578770 arbitrary units; Mean globalfluo ([Micafungin] log μM 1.041393): 10893240 arbitrary units; Survival rate (%) ([Micafungin] log μM 1.041393): 28%; Globalfluo assay 1 ([Micafungin] log μM 1.079181): 11147190 arbitrary units; Globalfluo assay 2 ([Micafungin] log μM 1.079181): 19591720 arbitrary units; Globalfluo assay 3 ([Micafungin] log μM 1.079181): 15002320 arbitrary units; Mean globalfluo ([Micafungin] log μM 1.079181): 15247077 arbitrary units; Survival rate (%) ([Micafungin] log μM 1.079181): 46%
